Laboratory results published in US20260199464A1, “COMPOSITIONS AND METHODS FOR ENHANCING CAR-T CELL PERFORMANCE AND FOR CANCER IMMUNOTHERAPY” (The Regents of the University of California, priority 2022, published 2026).

How the values were obtained:
[1] = system: B16-F10 tumors; assay: ZAA combined with anti-PD1 antibody, B16-F10 tumors implanted s.c. in B6 mice (FIG. 7, FIG. 8); type: in vivo
Experimental: FIG. 7 graphically illustrates data showing that tumor Growth Curves in B16-F10 tumors implanted subcutaneously (s.c.) in B6 mice. Tumor-bearing mice were treated with a combination of Zaragozic Acid A and anti-PD1 antibody.
FIG. 8 graphically illustrates data showing that ZAA synergizes with anti-PD1 therapy. Tumor-bearing mice were treated with a combination of Zaragozic Acid A and anti-PD1 antibody.
At day 6 after tumor injection, the mice were randomized and treated every other day with ZAA (Santa Cruz Biotechnology) or vehicle control by alternating intravenous ([…]) and intraperitoneal ([…]) injections until day 16. For combination therapy with anti-PD1 (programmed cell death protein 1 (PD-1)) antibody, ZAA was administered with the same schedule, and three consecutive treatments of anti-PD1 (InVivoMab anti-mouse PD-1 (CD279), BioXCell, BE0033-2) at 200 μg/mouse were delivered IP on days 9, 10, and 11 after tumor injection. Isotype control for Syrian IgG was used (InVivoMAb polyclonal Syrian hamster IgG, BioXCell). For CD8-depleting experiments in combination with ZAA, anti-CD8a Ab (2.43 BioXCell) was administered intraperitoneally at a dose of 200 μg/mouse starting 2 days prior to tumor implantation for three consecutive days (−2, −1, 0), followed by 2 additional doses of 100 μg/mouse on days 4 and 8, and ZAA treatment scheduled was started at day 4 after tumor implantation. Isotype control for Rat IgG2 was used (InVivoMAb rat IgG2a isotype control, anti-trinitrophenol, BioXCell).

[2] = Dependence of antitumor actions of ZAA on the immune system (FIG. 6); type: in vivo
[3] = system: B16-GP33-41 melanoma tumors; assay: ZAA combined with anti-PD-1 in B16-GP33-41 melanoma tumors; type: in vivo, mice; conditions: ZAA combined with anti-PD-1 treatment
Description: (§1) For adoptive therapy experiments, 5×10^5 B16-GP33-41 cells or MC38-GP33-41, which were verified Mycoplasma negative by PCR, and authenticated by in vitro killing assays, were transplanted subcutaneously into the right flank of wild-type B6 mice. After tumors became palpable, 7-8 days after transplantation, in vitro activated and expanded P14 CD8 T cells were transferred intravenously. For comparison of TIL accumulation in a mixed transfer setting, naive P14 CD8 T cells were activated, transduced and expanded with 50 U/mL of hIL-2 for 2-3 days; cells transduced with control constructs (Cd19 shRNAmir) or experimental constructs (Srebf2 shRNAmir) were mixed 1:1 and 1×10^6 P14 cells were transferred intravenously. For efficacy studies, transduced cells were expanded for 5-6 days; transduced cells were then sorted, and 1×10^6-2.5×10^6 cells were transferred intravenously into mice with established MC38-GP33-41 or B16-GP33-41 tumors. Tumors were monitored daily, and mice with ulcerated tumors or tumors exceeding 400 mm^2 were euthanized, in accordance with Univ. Calif. San Diego (UCSD) Institutional Animal Care and Use Committee (IACUC).
At day 6 after tumor injection, the mice were randomized and treated every other day with ZAA (Santa Cruz Biotechnology) or vehicle control by alternating intravenous ([…]) and intraperitoneal ([…]) injections until day 16. […]

[4] = system: MC38-GP33-41 tumors; assay: ZAA treatment of mice implanted with MC38-GP33-41 tumors, with or without CD8 T cell depletion; type: in vivo
Description: as §1
At day 6 after tumor injection, the mice were randomized and treated every other day with ZAA (Santa Cruz Biotechnology) or vehicle control by alternating intravenous ([…]) and intraperitoneal ([…]) injections until day 16. For combination therapy with anti-PD1 (programmed cell death protein 1 (PD-1)) antibody, ZAA was administered with the same schedule, and three consecutive treatments of anti-PD1 (InVivoMab anti-mouse PD-1 (CD279), BioXCell, BE0033-2) at 200 μg/mouse were delivered IP on days 9, 10, and 11 after tumor injection. Isotype control for Syrian IgG was used (InVivoMAb polyclonal Syrian hamster IgG, BioXCell). […]

[5] = system: CD19 CAR T cell; assay: ZAA combined with CD19 CAR T cell treatment of established solid tumors (FIG. 9); type: in vivo, mice
Description: FIG. 9 graphically illustrates data showing that ZAA can be combined with CAR T cell treatment of established solid tumors to increase the ability of CAR T cells to accumulate intratumorally. Tumor-bearing mice received tumor-specific CAR T cells in combination with Zaragozic Acid A. Tumor cells contained the surface protein CD19, which is recognized by the CAR anti-CD19 on the CD8 T cell (CD19 CAR T cell).

[6] = system: P14 CD8 T cells; type: in vivo, mice
[7] = combination of Zaragozic Acid A and anti-PD1 antibody, B16-F10 s.c.
[8] = ZAA vs vehicle, MC38-GP33-41 tumors

With C=C(CCC12O[C@H](C(=O)O)[C@@](O)(C(=O)O)C(C(=O)O)(O1)[C@H](OC(=O)/C=C/[C@@H](C)C[C@@H](C)CC)[C@H]2O)[C@@H](OC(C)=O)[C@H](C)Cc1ccccc1 (stereo partly shown) [ZAA, zaragozic acid A] the “interaction with anti-PD1 therapy” value ([1]; FIG. 8, independent tumor growth curves from FIG. 7) was “synergizes”, the “treatment of established tumors, efficacy of the combination” value [1, 7] was “effectively” and the “treatment of established tumors, safety of the combination” value [1, 7] was “safely”. The “antitumor actions, dependence on the immune system” value [2] was “depend on the immune system”, the “control of B16-GP33-41 melanoma tumors” value [3] was “greater control” and the “dependence of the antitumor effect on CD8 T cells” value ([4]; ZAA in combination with CD8 T cell depletion) was “CD8-dependent”. For the same compound, the survival of mice [4, 8] was “improved”, the tumor growth [4, 8] was “reduced” and the “interaction with CD19 CAR T cell therapy” value ([5]; FIG. 9) was “synergizes”. For the same compound, the “ability of CAR T cells to accumulate intratumorally” value ([5]; tumor-specific CD19 CAR T cells in combination with ZAA, CD19-bearing tumor cells) was “increase”.

With CC[C@H](C)C(=O)O[C@H]1C[C@@H](C)C=C2C=C[C@H](C)[C@H](CC[C@@H]3C[C@@H](O)CC(=O)O3)[C@H]21 [lovastatin] the “accumulation of P14 CD8 T cells responding to LCMV in the SI” value ([6]; day 7 of infection, compared to the control group (vehicle)) was “impaired”, the “SI TRM” value ([6]; day 21 after LCMV infection) was “sustained loss” and the “accumulation of memory T cells in the spleen” value ([6]; day 21 after LCMV infection) was “impaired accumulation”.
